This is an account of results in patent publication US10710993B2, “Benzofuran pyrazole amine kinase inhibitor” (Hangzhou REX Pharmaceutical Co., LTD., priority 2016, dated 2020).

One test addresses T1, TEL-ALK-F1174L-BaF3 (Homo sapiens, UniProt Q9UM73, F1174L, cells depend on it).
T1 construct: fused on or other part: TEL (ETV6) N-terminal oligomerising part fused before the ALK intracellular/kinase part; P41212 (Transcription factor ETV6)
Description: Cell proliferation experiment (Cell-Titer GLO), TEL-ALK-F1174L-BaF3. It is filed as cell-based. Particulars: 72 h, read-out: IC50 TEL-ALK F1174L-BaF3. As for the experimental part: (§1) Compounds to be tested: Positive compound Ceritinib and the compounds obtained by the examples of the present invention.
(§2) Cell lines: Karpas-299 and NCI-H3122 which were purchased from the Nanjing kebai biotechnology Co. LTD; TEL-ALK-F1174L-BaF3, TEL-ALK-G1202R-BaF3, TEL-ALK-C1156Y-BaF3 and TEL-ALK-L1196M-BaF3 which were purchased from Hefei zhongkopruisheng biological medicine technology Co. LTD.
(§3) Method: Cells were seeded in 96-well plates for 24 h in growth media containing 10% fetalbovine serum (FBS) and cultured overnight at 37° C. The following day, serial dilutions of compounds or appropriate control were added to the designated wells, and cells were incubated at 37° C. for 72 h. A Cell Titer Glo assay (Promega) was then performed to determine the relative cell numbers. IC50 values were calculated by concentration-response curve fitting using a four-parameter analytical method with Graphpad 6.0. Drug inhibition rate (%)=100%−[OD(Compound)−OD(blank)]/[OD(vehicle)−OD(blank)]×100% Equation: […]

In the next test the target is T2, TEL-ALK-G1202R-BaF3 (Homo sapiens, UniProt Q9UM73, G1202R, cells depend on it).
T2 construct: fused on or other part: TEL (ETV6) N-terminal oligomerising part fused before the ALK intracellular/kinase part; P41212 (Transcription factor ETV6)
T2 sequence (Q9UM73 whole entry G1202R, the tested form may be a part): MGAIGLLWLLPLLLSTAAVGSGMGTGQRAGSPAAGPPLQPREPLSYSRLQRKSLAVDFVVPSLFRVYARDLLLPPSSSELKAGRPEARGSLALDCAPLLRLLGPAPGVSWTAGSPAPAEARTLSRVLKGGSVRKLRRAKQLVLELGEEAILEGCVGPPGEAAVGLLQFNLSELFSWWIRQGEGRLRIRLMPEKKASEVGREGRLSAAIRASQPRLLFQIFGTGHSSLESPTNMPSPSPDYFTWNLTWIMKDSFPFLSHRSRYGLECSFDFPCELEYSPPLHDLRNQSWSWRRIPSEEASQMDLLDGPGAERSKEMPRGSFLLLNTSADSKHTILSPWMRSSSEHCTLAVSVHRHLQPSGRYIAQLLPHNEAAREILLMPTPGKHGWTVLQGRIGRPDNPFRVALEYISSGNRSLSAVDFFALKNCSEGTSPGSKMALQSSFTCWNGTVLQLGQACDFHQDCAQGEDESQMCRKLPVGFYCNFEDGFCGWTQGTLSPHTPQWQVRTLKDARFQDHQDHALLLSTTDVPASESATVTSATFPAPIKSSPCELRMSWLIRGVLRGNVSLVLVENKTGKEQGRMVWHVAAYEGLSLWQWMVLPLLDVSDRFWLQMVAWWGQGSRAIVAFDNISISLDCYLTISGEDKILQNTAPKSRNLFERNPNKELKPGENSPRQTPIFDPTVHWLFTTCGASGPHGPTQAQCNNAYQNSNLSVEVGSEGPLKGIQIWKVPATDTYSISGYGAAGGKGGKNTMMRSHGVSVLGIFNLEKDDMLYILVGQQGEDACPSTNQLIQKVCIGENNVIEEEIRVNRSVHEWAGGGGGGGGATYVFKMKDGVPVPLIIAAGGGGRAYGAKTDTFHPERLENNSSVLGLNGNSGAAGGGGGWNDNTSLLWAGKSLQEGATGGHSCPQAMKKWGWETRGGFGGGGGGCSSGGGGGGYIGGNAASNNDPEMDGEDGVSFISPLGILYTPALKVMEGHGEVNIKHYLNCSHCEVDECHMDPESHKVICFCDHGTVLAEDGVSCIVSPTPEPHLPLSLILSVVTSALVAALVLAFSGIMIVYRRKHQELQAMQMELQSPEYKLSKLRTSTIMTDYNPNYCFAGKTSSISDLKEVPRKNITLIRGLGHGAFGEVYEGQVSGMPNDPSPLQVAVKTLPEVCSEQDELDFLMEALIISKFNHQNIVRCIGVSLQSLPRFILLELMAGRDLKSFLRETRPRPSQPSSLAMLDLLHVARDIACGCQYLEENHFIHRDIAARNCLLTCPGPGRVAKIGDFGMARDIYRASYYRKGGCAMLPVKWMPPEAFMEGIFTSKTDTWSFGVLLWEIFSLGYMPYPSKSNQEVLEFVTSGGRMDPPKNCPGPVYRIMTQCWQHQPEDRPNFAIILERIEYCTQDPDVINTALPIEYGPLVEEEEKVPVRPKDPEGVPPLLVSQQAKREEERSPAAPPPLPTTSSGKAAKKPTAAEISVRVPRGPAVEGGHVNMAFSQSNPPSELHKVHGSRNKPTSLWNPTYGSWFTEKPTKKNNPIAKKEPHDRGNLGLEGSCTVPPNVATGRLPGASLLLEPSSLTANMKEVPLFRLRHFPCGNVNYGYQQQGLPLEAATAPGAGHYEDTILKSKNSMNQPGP
Description: Cell proliferation experiment (Cell-Titer GLO), TEL-ALK-G1202R-BaF3. It is filed as cell-based. The note with it: 72 h, read-out: IC50 TEL-ALK G1202R-BaF3. As for the experimental part:
as §1, §2, §3

The target of the next test is T3, TEL-ALK-C1156Y-BaF3 (Homo sapiens, UniProt Q9UM73, C1156Y, cells depend on it).
T3 construct: fused on or other part: TEL (ETV6) N-terminal oligomerising part fused before the ALK intracellular/kinase part; P41212 (Transcription factor ETV6)
T3 sequence (Q9UM73 whole entry C1156Y, the tested form may be a part): as the sequence (Q9UM73 whole entry G1202R, the tested form may be a part) above, with C1156Y, R1202G counted along it
Description: Cell proliferation experiment (Cell-Titer GLO), TEL-ALK-C1156Y-BaF3. Particulars: 72 h, read-out: IC50 TEL-ALK C1156Y-BaF3. Type of test: cell-based. On the procedure: as §1, §2, §3

A further test relates to NCI-H3122. Description: Cell proliferation experiment (Cell-Titer GLO), NCI-H3122. It is filed as cell-based. The note with it: Homo sapiens, 72 h. On the procedure: as §1, §2, §3
A further test has as its system Karpas-299. Description: Cell proliferation experiment (Cell-Titer GLO), Karpas-299. It is filed as cell-based. The note with it: Homo sapiens, 72 h. As for the experimental part:
as §1, §2, §3

Test [1] has as its system zebrafish iridophore pigment cells. Description: Phenotypic screening of zebrafish: effect on iridophore pigment cells. It is filed as in vivo, Zebrafish (Danio rerio). The note with it: for IOD: added at 6 hpf, images at 3 dpf. From the text:
Zebrafish (Danio rerio) is emerging as a predictive vertebrate animal model for in vivo assessment of drug efficacy, toxicity and safety. An important advantage of the zebrafish animal model is that the morphological and molecular basis of tissues and organs is either identical or similar to other vertebrates, including humans. The sequence and presumed function of many genes that are important for vertebrates are conserved in the zebrafish and the homology is as high as 85%. It has been shown that loss-of-function alleles for leukocyte tyrosine kinase (Ltk), the sister kinase to ALK, lack iridophores in zebrafish (Lopes, S. S., Yang, X., et al. (2008). Leukocyte tyrosine kinase functions in pigment cell development. PLoS Genet, 4.). Iridophores are neural crest-derived pigment cells that are clearly visible as shiny silver cells in the developing zebrafish embryo which distribute in the head, eyes, the lateral spine. ALK and LTK are sister kinase.
Therefore, using this principle, we investigated the effect of the compounds on normal zebrafish iridophore pigment cells to explore the compound's anti-ALK activity in vivo.
Method: Fish eggs of 6 hpf (hours post impurity) were randomly divided into groups. Then, subjects with different concentrations were added and the images were collected at 3 dpf (days post impurity). Then, the IOD (integrated option density) values of zebrafish dorsal iridophore pigment cells from the release pore to the caudal position were analyzed using ImageJ software. The Graphpad prism6.0 was used to conduct statistical analysis on Dunnett's t-test, and p<0.05 indicates statistical difference. The calculation formula of iridophore pigment inhibition rate is as follows: Inhibition rate (%)=[1−IOD(Compound)/IOD(vehicle)]×100%

A further test has as its system NCI-H2228 tumor cells. Description: Subcutaneous NCI-H2228 lung cancer xenograft model. The note with it: for TGI / tumor volume: 30 mg/kg PO QD 14 days; for tumor volume: at 14 days after administration (first day after administration end); for anti-tumor effect: 30 mg/kg, once a day, continuously for 14 days. Type of test: in vivo, BALB/C nude mice. On the procedure:
BALB/C nude mice were inoculated at the right flank with NCI-H2228 tumor cells to establish the human Lung cancer xenograft model. […] The drug was administered for 14 days and then discontinued for two weeks. The therapeutic effect was evaluated by calculating the relative tumor proliferation rate T/C (%), and the tolerability of treatment was evaluated by the body weight changes and death.
Tumor volume (TV) were measured twice per week in two dimensions using a caliper, and the volume were expressed in mm^3 using the formula: V=0.5 a×b^2 where a and b are the long and short diameters of the tumor, respectively.
Relative tumor volume RTV=Vt/V0, Vt=tumor volume of the drug-treated group on a given day of the study, V0=tumor volume of the drug-treated group on the initial day of dosing.
The T/C value (%) is an indicator of tumor response to treatment, and one of commonly used anti-tumor activity endpoint; T/C %=TRTV/CRTV×100% Relative Tumor Growth Inhibition; % TGI=(1−T/C)×100%;

The target of the next test is T4, Wild-Type ALK (Homo sapiens, UniProt Q9UM73).
T4 construct: purchased Life Technology
T4 sequence (Q9UM73 19-1620): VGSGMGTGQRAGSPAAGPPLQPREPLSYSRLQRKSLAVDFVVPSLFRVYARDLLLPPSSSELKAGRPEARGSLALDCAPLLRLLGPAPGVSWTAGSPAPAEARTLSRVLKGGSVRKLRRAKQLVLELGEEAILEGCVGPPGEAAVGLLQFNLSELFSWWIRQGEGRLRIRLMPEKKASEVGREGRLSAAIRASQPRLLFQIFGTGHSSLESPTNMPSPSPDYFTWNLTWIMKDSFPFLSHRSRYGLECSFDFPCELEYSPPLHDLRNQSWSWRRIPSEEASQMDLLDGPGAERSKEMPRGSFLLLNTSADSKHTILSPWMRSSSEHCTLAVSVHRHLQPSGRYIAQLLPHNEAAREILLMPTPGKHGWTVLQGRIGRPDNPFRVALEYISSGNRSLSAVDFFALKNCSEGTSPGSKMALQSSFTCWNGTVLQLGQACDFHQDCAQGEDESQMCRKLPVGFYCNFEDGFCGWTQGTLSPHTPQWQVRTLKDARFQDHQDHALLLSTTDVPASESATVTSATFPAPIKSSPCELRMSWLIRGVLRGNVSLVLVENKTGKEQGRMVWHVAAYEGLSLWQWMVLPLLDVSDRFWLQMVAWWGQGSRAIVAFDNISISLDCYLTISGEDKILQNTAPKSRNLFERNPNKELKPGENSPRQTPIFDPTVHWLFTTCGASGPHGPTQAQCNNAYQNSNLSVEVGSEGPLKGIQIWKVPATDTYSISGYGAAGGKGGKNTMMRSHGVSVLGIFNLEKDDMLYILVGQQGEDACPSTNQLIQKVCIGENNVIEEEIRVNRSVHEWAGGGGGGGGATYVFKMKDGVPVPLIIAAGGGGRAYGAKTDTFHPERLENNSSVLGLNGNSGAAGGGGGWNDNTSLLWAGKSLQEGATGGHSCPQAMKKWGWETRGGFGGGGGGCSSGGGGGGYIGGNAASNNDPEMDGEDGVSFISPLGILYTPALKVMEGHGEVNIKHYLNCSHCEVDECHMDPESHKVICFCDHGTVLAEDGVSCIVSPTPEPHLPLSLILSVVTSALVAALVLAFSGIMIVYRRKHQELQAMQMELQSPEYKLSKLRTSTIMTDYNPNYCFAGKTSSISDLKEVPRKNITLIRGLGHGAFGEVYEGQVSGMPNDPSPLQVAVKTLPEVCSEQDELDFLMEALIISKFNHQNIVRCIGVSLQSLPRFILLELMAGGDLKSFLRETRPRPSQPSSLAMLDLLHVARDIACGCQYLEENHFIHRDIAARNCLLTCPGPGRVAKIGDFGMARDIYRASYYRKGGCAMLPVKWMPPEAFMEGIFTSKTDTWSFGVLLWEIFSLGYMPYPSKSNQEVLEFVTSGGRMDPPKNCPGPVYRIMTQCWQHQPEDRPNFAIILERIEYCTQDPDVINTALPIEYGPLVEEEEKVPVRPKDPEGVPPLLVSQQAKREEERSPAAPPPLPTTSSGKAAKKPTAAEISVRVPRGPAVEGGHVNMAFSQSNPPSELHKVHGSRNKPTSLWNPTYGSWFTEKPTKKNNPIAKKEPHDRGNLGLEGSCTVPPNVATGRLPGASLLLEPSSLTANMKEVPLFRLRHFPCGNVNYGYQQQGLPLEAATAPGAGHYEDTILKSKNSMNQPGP
The test can be described thus: Z'-LYTE (FRET) ALK kinase inhibitory activity. It is filed as biochemical. As for the experimental part:
(§4) The kinase activity assay was determined by using kinase assay panel (Life Technology) and the result was in table 1.

The next test concerns the target T5, ALK L1196M (Homo sapiens, UniProt Q9UM73, L1196M).
T5 construct: purchased Life Technology
Description: LanthaScreen Eu Kinase Binding Assay (TR-FRET) on ALK mutant.
Text: Meanwhile, The LanthaScreen® Eu Kinase Binging Assay (TR-FRET) method was used for determining ALK Mutants (such as ALK L1196M) inhibitory activity IC50. LanthaScreen Eu kinase binding experiment detected Alexa Fluor conjugate or kinase “tracer” binding by adding Eu labeled antibodies or anti-label antibodies. The combination of tracer and antibody with kinase leads to a high level of FRET, whereas the use of kinase inhibitors in place of tracer may cause FRET loss.
as §4
A general note: Time-resolved FRET reads energy transfer from a long-lived donor to a nearby acceptor.

The target in a further test is T6, TEL-ALK-L1196M-BaF3 (Homo sapiens, UniProt Q9UM73, L1196M, cells depend on it).
T6 construct: fused on or other part: TEL (ETV6) N-terminal oligomerising part fused before the ALK intracellular/kinase part; P41212 (Transcription factor ETV6)
T6 sequence (Q9UM73 whole entry L1196M, the tested form may be a part): as the sequence (Q9UM73 whole entry G1202R, the tested form may be a part) above, with L1196M, R1202G counted along it
The test can be described thus: Cell proliferation experiment (Cell-Titer GLO), TEL-ALK-L1196M-BaF3. It is filed as cell-based. Particulars: 72 h, read-out: IC50 TEL-ALK L1196M-BaF3. On the procedure:
as §2
Method: Cells were seeded in 96-well plates for 24 h in growth media containing 10% fetalbovine serum (FBS) and cultured overnight at 37° C. The following day, serial dilutions of compounds or appropriate control were added to the designated wells, and cells were incubated at 37° C. for 72 h. A Cell Titer Glo assay (Promega) was then performed to determine the relative cell numbers. IC50 values were calculated by concentration-response curve fitting using a four-parameter analytical method with Graphpad 6.0.

The mark [2] stands for this setting: Danio rerio, 15 μM, iridophore pigment, 3 dpf, read-out: Inhibition rate %.
[3] abbreviates: at 14 days after administration.
Where [4] appears, read: end of the experiment (15 days after the administration).

In general, IC50 refers to the point on the concentration scale where inhibition reaches its midpoint. The term inhibition denotes the percentage by which the read-out fell short of the control. Broadly, the TGI is how far tumour growth fell short of that in controls. A higher TGI goes with much slowing of growth.

A value given as a limit tells only on which side of the number the result lay.

T5 sequence (Q9UM73 19-1620 L1196M): as the sequence (Q9UM73 19-1620) above, with L1178M counted along it
T1 sequence (Q9UM73 whole entry F1174L, the tested form may be a part): as the sequence (Q9UM73 whole entry G1202R, the tested form may be a part) above, with F1174L, R1202G counted along it

With `Cc1cc(Nc2ncc(Cl)c(Nc3ccccc3S(=O)(=O)C(C)C)n2)c(OC(C)C)cc1C1CCNCC1` [Ceritinib, reference compound], the GI50 on TEL-ALK-F1174L-BaF3 is 36.1 nM; at TEL-ALK-G1202R-BaF3, > 180 nM; on TEL-ALK-C1156Y-BaF3 it was 36.5 nM. In addition, the IC50 in the test with NCI-H3122 is 40.7 nM; in the test with Karpas-299, 40 to 85 nM. The IOD in test [1] (15 μM) is listed as 35.5 ± 7.0. The inhibition at 15 µM in [1] (setting [2]) is 95%. Also, the TGI with NCI-H2228 tumor cells (setting [3]) was determined as 94.7%; in the test on NCI-H2228 tumor cells (setting [4]) it was 95.3%. Also, the tumor volume in the test with NCI-H2228 tumor cells is reported as 17 mm^3. The anti-tumor effect result in the test on NCI-H2228 tumor cells was “significant anti-tumor effect”.
As to `Cc1cc(Nc2ncc(C(F)(F)F)c(Nc3cn(C)nc3S(=O)(=O)C(C)C)n2)c2c(c1C1CCN(C)CC1)C[C@@H](C)O2` [REX-D4, (R)—N^2-(2,5-dimethyl-4-(1-methylpiperidin-4-yl)-2,3-dihydrobenzofuran-7-yl)-N^4-(3-(isopropylsulfonyl)-1-methyl-1H-pyrazol-4-yl)-5-(trifluoromethyl)pyrimidine-2,4-diamine], the IC50 was 5.9 nM against Wild-Type ALK, 0.565 nM on ALK L1196M, 10.6 nM in the test on NCI-H3122 and < 10 nM with Karpas-299. Further, the GI50 at TEL-ALK-F1174L-BaF3 is < 10 nM; at TEL-ALK-G1202R-BaF3 it was < 50 nM; on TEL-ALK-C1156Y-BaF3, 10.5 nM; at TEL-ALK-L1196M-BaF3, 10.5 nM.
As to `Cc1cc(Nc2ncc(Cl)c(Nc3cn(C)nc3S(=O)(=O)C(C)C)n2)c2c(c1C1CCN(C)CC1)C[C@@H](C)O2` [REX-D2, (R)-5-chloro-N^2-(2,5-dimethyl-4-(1-methylpiperidin-4-yl)-2,3-dihydrobenzofuran-7-yl)-N^4-(3-(isopropylsulfonyl)-1-methyl-1H-pyrazol-4-yl)pyrimidine-2,4-diamine], the IC50 on Wild-Type ALK was 13.3 nM; at ALK L1196M, 0.695 nM; in the test on NCI-H3122, 10.6 nM; in the test on Karpas-299 it was < 10 nM. Further, the GI50 at TEL-ALK-F1174L-BaF3 is < 10 nM; on TEL-ALK-G1202R-BaF3 it was < 50 nM; on TEL-ALK-C1156Y-BaF3, 10.4 nM; on TEL-ALK-L1196M-BaF3, 10.5 nM. Besides, the IOD came to 420.9 ± 34.1 in [1] (5 μM), 173.8 ± 20.5 in test [1] (10 μM), 64.6 ± 16.1 in test [1] (15 μM) and 24.8 ± 5.8 in test [1] (20 μM). The inhibition at 5 µM in [1] (Danio rerio, 5 μM, iridophore pigment, 3 dpf, read-out: Inhibition rate %) was 38%. In test [1] (Danio rerio, 10 μM, iridophore pigment, 3 dpf, read-out: Inhibition rate %), the inhibition at 10 µM came out at 75%. The inhibition at 15 µM in test [1] (setting [2]) came out at 91%. For the same molecule, in test [1] (Danio rerio, 20 μM, iridophore pigment, 3 dpf, read-out: Inhibition rate %), the inhibition at 20 µM was found to be 96%. Besides, in [1] (different doses of concentration), the “inhibition of the formation of iridophore pigment cells” value is “significant inhibition”. In addition, the TGI with NCI-H2228 tumor cells (setting [3]) was found to be 96.1%; in the test with NCI-H2228 tumor cells (setting [4]) it was 98.8%. The same molecule showed a tumor volume in the test with NCI-H2228 tumor cells of 13 mm^3. In addition, the anti-tumor effect entry in the test with NCI-H2228 tumor cells is “significant anti-tumor effect”.
On to `Cc1cc(Nc2ncc(Cl)c(Nc3cn(C)nc3S(=O)(=O)C(C)C)n2)c2c(c1C1CCNCC1)C[C@@H](C)O2` [REX-D1, (R)-5-chloro-N^2-(2,5-dimethyl-4-(piperidin-4-yl)-2,3-dihydrobenzofuran-7-yl)-N^4-(3-(isopropylsulfonyl)-1-methyl-1H-pyrazol-4-yl)pyrimidine-2,4-diamine], for which the IC50 against Wild-Type ALK is 6.82 nM; on ALK L1196M, 1.34 nM; with NCI-H3122, 10.6 nM; with Karpas-299, < 20 nM. The GI50 is < 10 nM at TEL-ALK-F1174L-BaF3, > 180 nM at TEL-ALK-G1202R-BaF3, 10.5 nM on TEL-ALK-C1156Y-BaF3 and 10.5 nM on TEL-ALK-L1196M-BaF3.
On to `Cc1cc(Nc2ncc(C(F)(F)F)c(Nc3cn(C)nc3S(=O)(=O)C(C)C)n2)c2c(c1C1CCNCC1)C[C@@H](C)O2` [REX-D3, (R)—N^2-(2,5-dimethyl-4-(piperidin-4-yl)-2,3-dihydrobenzofuran-7-yl)-N^4-(3-(isopropylsulfonyl)-1-methyl-1H-pyrazol-4-yl)-5-(trifluoromethyl)pyrimidine-2,4-diamine], for which the IC50 was 15.9 nM against Wild-Type ALK, 1.25 nM on ALK L1196M, 10.8 nM in the test on NCI-H3122 and < 20 nM in the test with Karpas-299. Moreover, the GI50 is < 10 nM at TEL-ALK-F1174L-BaF3, < 140 nM on TEL-ALK-G1202R-BaF3, 10.5 nM on TEL-ALK-C1156Y-BaF3 and 10.4 nM at TEL-ALK-L1196M-BaF3.
